Assay results published in patent US10927086B2, “Substituted sulfoximine compounds as indoleamine 2,3-dioxygenase (IDO) inhibitors” (Merck Sharp & Dohme Corp., priority 2017, dated 2021).

Tests used:
IDO1 [1] = target: T1, IDO1 (Homo sapiens (Human), UniProt P14902); assay: IDO1 Enzyme Assay; assay type: biochemical; settings: HIS-tagged recombinant IDO1, fluorescence readout
Protocol: (§1) Compounds to be tested were serially diluted in ten 3-fold steps in DMSO starting from 10 mM DMSO stocks. Compound dilutions or DMSO alone were then dispensed from the dilution plate into a Greiner black 384-well assay plate (catalog #781086) using an Echo 555 acoustic liquid handler (Labcyte).
HIS-tagged IDO1 protein was recombinantly expressed in Escherichia coli using ZYP5052 autoinduction media supplemented with 500 μM delta aminolevulinic acid for 48 h at 16° C. IDO1 protein was purified using Ni^2+-affinity resin and size exclusion chromatography. Purified protein was then diluted in assay buffer (50 mM Tris pH 7.0, 1% glycerol, 20 μM methylene blue, 0.05% Tween-20, 20 mM sodium ascorbate, 100 units/mL catalase to obtain a final IDO1 concentration of 40 nM. IDO1 solution […] or buffer alone ([…]) were dispensed to wells of the assay plate using a BioRAPTR liquid dispenser (Beckman Coulter). Assay plates containing compound and IDO1 enzyme were incubated at RT for 30 min. Afterwards, 10 μL of 400 μM tryptophan in assay buffer were added to each well of the assay plate using a BioRAPTR liquid dispenser. Plates were incubated at RT for 60 min and reactions were quenched by addition of 10 μL of 0.5 M methyl isonipecotate in dimethyl sulfoxide. Plates were sealed and incubated at 37° C. for 4 h or 50° C. for 2 h. The plates are allowed to cool and then centrifuged for 1 min at 1000×g. The resulting fluoresence was measured in an Envision plate reader (Perkin Elmer) with a 400/25 nm excitation filter and an 510/20 nm emission filter.
Potencies were calculated by linear least squares fit to the four parameter logistic IC50 equation.
Target sequence in this assay (P14902 whole entry, species assumed): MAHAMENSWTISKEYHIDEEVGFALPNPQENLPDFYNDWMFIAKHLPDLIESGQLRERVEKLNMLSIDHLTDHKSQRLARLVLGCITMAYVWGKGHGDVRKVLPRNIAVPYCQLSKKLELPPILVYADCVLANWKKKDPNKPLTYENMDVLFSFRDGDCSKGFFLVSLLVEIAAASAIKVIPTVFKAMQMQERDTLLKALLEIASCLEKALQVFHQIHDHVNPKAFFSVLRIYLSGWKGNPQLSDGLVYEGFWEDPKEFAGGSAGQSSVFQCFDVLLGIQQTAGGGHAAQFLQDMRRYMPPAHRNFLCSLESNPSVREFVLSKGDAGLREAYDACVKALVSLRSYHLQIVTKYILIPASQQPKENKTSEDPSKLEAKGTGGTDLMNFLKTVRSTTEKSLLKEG

IDO1 [2] = target: T1, IDO1; assay: IDO1 Human Whole Blood Assay; assay type: cell-based; settings: LPS and IFNγ, 18 h, kynurenine by LC/MS/MS
Protocol: Compounds to be tested were serially diluted in ten 3-fold steps in DMSO starting from 10 mM. 3 μL of compound dilutions or DMSO alone were then dispensed from the dilution plate into a polypropylene 96-well assay plate containing 97 μL of RPMI using an Echo 555 acoustic liquid handler (Labcyte). LPS and IFNγ was prepared in RPMI to a 10λ of final conc. (1000 ng/mL), final concentration is 100 ng/mL.
Human whole blood was drawn in sodium heparin coated tubes from healthy internal donors. Two hundred forty μL of blood was transferred to each of the wells of a v-bottom 96 well plate. Thirty μL of compound was transferred from intermediate dilution plate, and incubated for 15 min. […] from stimulants was then transferred to blood and mixed thoroughly. Plate was covered with breathable membrane and incubated at 37° C. for overnight (18 h).
On day 2 isotope labeled standard of kynurenine and tryptophan was made in water at 10× concentration and 30 μL was added to the blood at 3 μM final concentration. The assay plates were centrifuged at 300×G for 10 min with no brake to separate plasma from red blood cells. Sixty μL of plasma samples was removed without disturbing red blood cells.
Plasma was diluted with RPMI in 1:1 ratio and proteins were precipitated out with two volume of Acetonitrile. The plates was centrifuged at 4000×G for 60 min. Twenty μL of supernatant was carefully transferred to a 384 well plate contain 40 μL of 0.1% formic acid in water and analyzed by LC/MS/MS.
LC/MS/MS analyses were performed using Thermo Fisher's LX4-TSQ Quantum Ultra system. This system consists of four Agilent binary high-performance liquid chromatography (HPLC) pumps and a TSQ Quantum Ultra triple quadruple MS/MS instrument. For each sample, 5 μL were injected onto an Atlantis T3 column (2.1 mm×150 mm, 3 μm particle size) from Waters. The mobile phase gradient pumped at 0.8 mL/min was used to elute the analytes from the column at 25° C. The elution started at 0% B increasing linearly to 25% B at 6.5 min, holding at 25% for 1 min, re-equilibrating to 10 min. Mobile phase A consisted of 0.1% formic acid in water. Mobile phase B consisted of 0.1% of formic acid in acetonitrile. Data was acquired in positive mode using a HESI interface. The operational parameters for the TSQ Quantum Ultra instrument were a spray voltage of 4000 V, capillary temperature of 380° C., vaporizer temperature 400° C., shealth gas 60 arbitrary units, Aux gas 20 arbitrary units, tube lens 85 and collision gas 1.2 mTorr. SRM chromatograms of kynurenine (QI: 209.2>Q3:94.0) and internal standard (Q1: 215.3>Q3:98.2) were collected for 90 sec. The peak area was integrated by Xcalibur Quan software. The ratios between the kynurenine generated in the reaction and 2D6-Kynurenine spiked-in internal standard were used to generate percentage inhibition and IC50 values. Compounds were titrated and IC50's were calculated by 4 parameter sigmoidal curve fitting formula.
Target sequence in this assay (P14902 whole entry): as the sequence (P14902 whole entry, species assumed) above

IDO1 [3] = target: T1, IDO1; assay: IDO1 Cellular Assay in Hela Cells Stimulated with IFNγ; assay type: cell-based; settings: about 48 hours, read-out: IDO1 HELA Cell Assay, IC50
Protocol: Hela cells were cultured in complete Hela culture medium (90% EMEM, 10% heat-inactivated fetal bovine serum) and expanded to about 1×10^9 cells. The cells were then collected and frozen down at 10×10^6 cells/vial in 1 mL frozen medium (90% complete Hela culture medium, 10% DMSO)
as §1, with “stocks in Echo low volume plate(s).” for “stocks.”, “plate(s)” for “plate”, “into” for “into a”, “#781086, 50 nL/well)” for “#781086)”, “550” for “555”
Target sequence in this assay (P14902 whole entry): as the sequence (P14902 whole entry, species assumed) above
Frozen Hela cells were thawed and transferred into Hela assay medium (99% complete Hela culture medium, 1% Pen/Strep) with 20 mL medium/vial of cells. The cells were spun down at 250 g in a table top centrifuge for 5 min and suspended in same volume of Hela assay medium. The cells were then counted and adjusted to a density of 2×10^5 cells/ml in Hela assay medium. Sterile L-tryptophan were added to the cells with final concentration of 300 uM L-tryptophan. A small aliquot (2 mL/plate) of Hela cells were set aside and were not treated with IFNγ, to serve as the Max-E control. The rest of Hela cells were added with sterile IFNγ (Cat #285-IF, R & D systems) with a final concentration of 100 ng/mL.
Hela cells with and without IFNγ were dispensed to the respective wells of 384-well assay plates containing the compounds. The plates were incubated for about 48 hours at a 37° C., 5% CO2 incubator. Afterwards, 12 μL of 0.5 M methyl isonipecotate in dimethyl sulfoxide were added into each well and the plates were sealed and incubated at 37° C. without CO2 overnight. The plates were centrifuged for 1 min at 200×g. The resulting fluorescence was measured in a Spectramax plate reader (Molecular Devices) with a 400 nm excitation filter and a 510 nm emission filter.
The fluorescence intensity of each well was corrected for the background observed in wells with non-IFNγ-treated cells and was expressed as a fraction of the intensity observed in wells of IFNγ-treated cells and DMSO only. Potencies were calculated by linear least squares fit to the four parameter logistic IC50 equation.

| Compound | IC50 (IDO1 [1]) | IC50 (IDO1 [2]) | IC50 (IDO1 [3]) |
| --- | --- | --- | --- |
| N=S1(=O)CC(Nc2nonc2/C(=N/O)N[C@H]2Cc3ccc(F)cc32)C1 (single isomer, unassigned) [Example 3] | 120 nM | 1800 nM | 110 nM |
| N=S1(=O)CC(Nc2nonc2/C(=N/O)N[C@H]2Cc3ccc(F)cc32)C1 (single isomer, unassigned) [Example 4] | 90.6 nM | 1890 nM | 162 nM |
| N=S1(=O)CC(CNc2nonc2/C(=N/O)N[C@H]2Cc3ccc(F)cc32)C1 (single isomer, unassigned) [Example 5] | 102 nM | 412 nM | 168 nM |
| CS(=N)(=O)N1CC(Oc2nonc2/C(=N/O)N[C@H]2Cc3ccc(F)cc32)C1 (single isomer, unassigned) [Example 41] | 94 nM | 224 nM | 117 nM |
| CS(=N)(=O)N1CCO[C@@H](CNc2nonc2/C(=N\O)N[C@@H]2Cc3ccc(F)cc32)C1 (single isomer, unassigned) [Example 63] | 98 nM | 1200 nM | 73 nM |
| C[S@@](=N)(=O)CCNc1nonc1/C(=N/O)N[C@H]1Cc2ccc(F)cc21 [Example 2, N—((S)-4-fluorobicyclo[4.2.0]octa-1(6),2,4-trien-7-yl)-N′-hydroxy-4-((2-((R)—S-methylsulfonimidoyl)ethyl)amino)-1,2,5-oxadiazole-3-carboximidamide] | 88.1 nM | 386 nM | 60.9 nM |
| CS(=O)(/C=C/Nc1nonc1/C(=N/O)N[C@H]1Cc2ccc(F)cc21)=NC#N (stereo partly drawn) [Example 15, 4-(((E)-2-(N-cyano-S-methylsulfonimidoyl)vinyl)amino)-N-((S)-4-fluorobicyclo[4.2.0]octa-1(6),2,4-trien-7-yl)-N′-hydroxy-1,2,5-oxadiazole-3-carboximidamide] | 165 nM | 869 nM | 20.1 nM |

Continued by falling IC50 (IDO1 [1]), values first:

| IC50 (IDO1 [1]) | IC50 (IDO1 [2]) | IC50 (IDO1 [3]) | Compound |
| --- | --- | --- | --- |
| 86 nM | 427 nM | 55.8 nM | C[S@](=N)(=O)CCNc1nonc1/C(=N/O)N[C@H]1Cc2ccc(F)cc21 [Example 1, N—((S)-4-fluorobicyclo[4.2.0]octa-1(6),2,4-trien-7-yl)-N′-hydroxy-4-((2-((S)—S-methylsulfonimidoyl)ethyl)amino)-1,2,5-oxadiazole-3-carboximidamide] |
| 85.7 nM | 1640 nM | 148 nM | CS(=N)(=O)N1CC(O)(CNc2nonc2/C(=N/O)N[C@H]2Cc3ccc(F)cc32)C1 (single isomer, unassigned) [Example 36] |
| 64.7 nM | 173 nM | 53.7 nM | CS(=O)(CCNc1nonc1/C(=N/O)N[C@H]1Cc2ccc(F)cc21)=NC#N (stereo partly drawn) [Example 17, 4-((2-(N-cyano-S-methylsulfonimidoyl)ethyl)amino)-N-((S)-4-fluorobicyclo[4.2.0]octa-1(6),2,4-trien-7-yl)-N′-hydroxy-1,2,5-oxadiazole-3-carboximidamide] |
| 55.1 nM | 843 nM | 69.2 nM | CS(=O)(CCNc1nonc1/C(=N/O)N[C@H]1Cc2ccc(F)cc21)=NC(N)=O (stereo partly drawn) [Example 16, 4-((2-(N-carbamoyl-S-methylsulfonimidoyl)ethyl)amino)-N-((S)-4-fluorobicyclo[4.2.0]octa-1,3,5-trien-7-yl)-N′-hydroxy-1,2,5-oxadiazole-3-carboximidamide] |
| 51 nM | 494 nM | 92.1 nM | N=S1(=O)CC(CNc2nonc2/C(=N/O)N[C@H]2Cc3ccc(F)cc32)C1 (single isomer, unassigned) [Example 6] |
